Source: US11660280B2, “Treatment of drug resistant gliomas” (OKLAHOMA MEDICAL RESEARCH FOUNDATION, priority 2017, dated 2023)

Assays:
[1] = system: LBP (lipopolysaccharide binding protein); test: LBP ELISA in tumor tissue and blood serum of G55 glioma-bearing mice; assay type: in vivo, mouse
Protocol: Lipopolysaccharide binding protein (LBP) ELISA assay. The LBP ELISA kit (Antibodies-Online.com; ABIN370808) is specific for mouse LBP levels in serum, plasma and tissue samples. This is a colorimetric assay that was read on a micro plate reader for measurement of absorbance at 450/620 nm. LBP concentrations were calculated from a standard curve and multiplied by appropriate dilution factors.

[2] = system: GBM cells (LN229, U138, G55, U251, T98, LN18); test: Cell viability at 1 mM vs 2 mM OKN; assay type: cell-based, human
HIF-1α = test: RT-PCR gene-fold changes in human GBM cells; assay type: cell-based
Protocol: Quantification of mRNA by real-time quantitative RT-PCR for HIF-1a, MPG and MGMT. Total RNA from all cell lines with all treatments was purified with an RNeasy Mini Kit (Qiagen), and quantified by spectrophotometry (Nanodrop). cDNA was synthesized using SuperScript IV Reverse Transcriptase Kit (Invitrogen).
Target gene mRNA was amplified and measured by Bio-Rad CFX96™ Real Time System. Gene expression was determined using the SYBR Select Master Mix (Applied Biosystems). […] The reaction is characterized by the point during cycling when amplification of PCR products is first detected, rather than the amount of PCR product accumulated after a fixed number of cycles. The higher the starting quantity of the template, the earlier a significant increase in fluorescence is observed. The threshold cycle is defined as the fractional cycle number at which fluorescence passes a fixed threshold above the baseline. Fluorescence data were converted into cycle threshold measurements exported to Microsoft Excel. Glyceraldehyde-3-phosphatase dehydrogenase (GAPDH) mRNA expression levels were used as the quantitative internal control. For precise quantification, the mRNA expression level of each sample was normalized using the expression of the GAPDH gene.
All primers were synthesized by Integrated DNA Technologies. The primers used were: […]

rat F98 gliomas = test: Microarray analysis of OKN-007-treated vs untreated rat F98 gliomas; assay type: in vivo
Protocol: Mice and Treatments. Animal studies were conducted in accordance to the OMRF IACUC (Institutional Animal Care and Use Committee) policies, which follow NIH guidelines. For the F98 rat glioma cell implantation model, F98 cells (10^5 in 10-μ1 volume) were intracerebrally implanted with a stereotaxic device (2 mm lateral and 2 mm anterior to the bregma, and at a 3 mm depth) in a total of 15 Fischer 344 rats (male 200-250 gm). The animals were divided into two groups once tumors reached 10-20 mm^3 in volume (as determined by MRI): OKN-007 treated (n=8) and untreated (UT) (n=7) groups. Rats were treated until tumors reached 200-250 mm^3 in volume or for a total of 4-6 weeks. For the G55 GBM cell implantation model, two-month-old male nude mice (Hsd:Athymic Nude-Foxnlnu mice; Harlan Inc., Indianapolis, IN) were implanted intracerebrally with human G55 xenograft cells (1×10^6) per mL suspended in 4 μL in cell culture media of 1% agarose solution. Once tumors reached 10-15 mm^3 (determined via MRI), mice were either treated daily with OKN-007 in the drinking water (150 mg/kg; 0.20% w/v for a 20 g mouse), or every 3 days with TMZ (30 mg/kg). OKN-007 was dissolved in water and made fresh every 2 days. Water bottles were weighed, and the amount of OKN-007 consumed per mouse was determined. […] The average intake of OKN-007 was approximately 140-150 mg/kg/day/mouse. TMZ was dissolved in 5% DMSO and 5% solutol-15 in sterile saline and administered via gavage. Mice were treated until the tumors reached 100-150 mm^3 or for a total of 4-6 weeks. All groups were stratified to ensure that tumor sizes were similar before initiation of treatment.
RNA isolation and preparation. For the rat F98 glioma study, all rats were euthanized after the last MRI examination. The brain of each animal was removed, and snap frozen in liquid nitrogen, before storage in a −80° C. freezer. Total RNA from all tumor tissues from all treatment groups was purified with an RNeasy Mini Kit (Qiagen), and quantified by spectrophotometry (Nanodrop). cDNA was synthesized using SuperScript IV Reverse Transcriptase Kit (Invitrogen).
Microarray analysis. The Illumina TotalPrepTM RNA Amplification Kit was used for labeling cRNA (Ambion, Austin, Tex.), as previously described (Griffins et al., 2009). Four×four treated/untreated samples were profiled using Affymetrix RaGene-1_0-st-v1 microarrays. Exon-level-summarized measures were quantile-normalized and tested for differential expression using Significance Analysis of Microarrays (SAM, [PMID: 11309499]) at a false discovery rate (FDR) <40% and […]. Functional enrichment analysis was performed using Ingenuity Pathways Analysis (IPA) (Ingenuity® Systems, world-wide-web at ingenuity.com).

[3] = microarray, F98 gliomas, OKN treatment vs UT

## CC(C)(C)[N+]([O-])=Cc1ccc(S(=O)(=O)O)cc1S(=O)(=O)O [OKN-007, 2,4-disulfonyl phenyl tert-butyl nitrone]
[1]
  LBP levels in tumor tissues compared to UT mice: significantly less
[2]; LN229, U138, G55 cells
  reduction of cell viabilities, 1 mM OKN compared to the 2 mM concentration: just as effective
[2]; U251, T98, LN18 cells
  reduction of cell viabilities, 2 mM OKN compared to the 1 mM concentration: slightly more effective
HIF-1α; G55 cells (TMZ-resistant), UT 1.00
  RT-PCR gene-fold change HIF-1α: 1.20 fold
HIF-1α; LN18 cells (TMZ-resistant), UT 1.03
  RT-PCR gene-fold change HIF-1α: 1.35 fold
HIF-1α; LN229 cells (TMZ-sensitive), UT 1.00
  RT-PCR gene-fold change HIF-1α: 1.09 fold
HIF-1α; T98 cells (TMZ-resistant), UT 1.00
  RT-PCR gene-fold change HIF-1α: 0.58 fold
HIF-1α; U138 cells (TMZ-resistant), UT 1.00
  RT-PCR gene-fold change HIF-1α: 2.93 fold
HIF-1α; U251 cells (TMZ-sensitive), UT 1.00
  RT-PCR gene-fold change HIF-1α: 1.59 fold
Rat F98 gliomas; Upstream Regulator Analysis, IPA, rat F98 treated gliomas vs untreated tumors
  number of down-regulated genes with TGFβ1 as master (upstream) regulator: 57 genes
Rat F98 gliomas; microarray, F98 gliomas treated with OKN-007 vs UT
  TGFβ1 downregulation: ~2 fold
Rat F98 gliomas; [3]
  number of genes upregulated: 3 genes
  number of genes with at least one exon significantly downregulated: 384 genes
Rat F98 gliomas; microarray, rat F98 glioma model, treated vs untreated tumors
  decrease in gene expression for LBP: > 2 fold
